Legend:
[1] = 1:1 complex, fully deprotonated chelant, 25° C., 0.1M ionic strength; cited from earlier work
[2] = 1:1 complex, fully deprotonated chelant, 25° C., 0.1M ionic strength; cited from earlier work; remark: listed apart in the source
[3] = Calculated conditional stability constants for chelants with Cu^+2 at specified pH; assay type: physicochemical
Description: (§1) However, as the pH range of the present compositions are acidic (i.e., less than 7), the log alpha value (αm) is considered to be constant and approximately negligible.

[4] = 1:1 complex, fully deprotonated chelant, 25° C., 0.1M ionic strength; cited from earlier work; remark: listed apart in the source
[5] = Calculated conditional stability constants for chelants with Ca^+2 at specified pH; assay type: physicochemical
Description: as §1
The calculated stability constants for a range of chelants with Fe^+3, Cu^+2, and Ca^+2 are given below in Table 3: […]

[6] = Calculated conditional stability constants for chelants with Fe^+3 at specified pH
Description: The gradual change in ligand species as pH changes can be represented using alpha (α) coefficients, defined as: [formula] […] By combining stability (K) and alpha (α) constants at a given pH, the formula below provides the effective chelating power of a chelant.

## O=C(O)CN(CCN(CC(=O)O)CC(=O)O)CC(=O)O [EDTA]
[1]
  log K Ca: 10.65
[2]
  log K Fe: 14.3
[3]; pH 2
  log Conditional Stability Constant (@ pH) Cu^+2: 5.45
[3]; pH 3
  log Conditional Stability Constant (@ pH) Cu^+2: 8.29
[3]; pH 4
  log Conditional Stability Constant (@ pH) Cu^+2: 10.46
[3]; pH 5
  log Conditional Stability Constant (@ pH) Cu^+2: 12.45
[3]; pH 6
  log Conditional Stability Constant (@ pH) Cu^+2: 14.24
[3]; pH 7
  log Conditional Stability Constant (@ pH) Cu^+2: 15.55
[3]; pH 8
  log Conditional Stability Constant (@ pH) Cu^+2: 16.60
[4]
  log K Cu: 18.78
[5]; pH 2
  log Conditional Stability Constant (@ pH) Ca^+2: −2.65
[5]; pH 3
  log Conditional Stability Constant (@ pH) Ca^+2: 0.19
[5]; pH 4
  log Conditional Stability Constant (@ pH) Ca^+2: 2.36
[5]; pH 5
  log Conditional Stability Constant (@ pH) Ca^+2: 4.35
[5]; pH 6
  log Conditional Stability Constant (@ pH) Ca^+2: 6.14
[5]; pH 7
  log Conditional Stability Constant (@ pH) Ca^+2: 7.45
[5]; pH 8
  log Conditional Stability Constant (@ pH) Ca^+2: 8.50

## O=P(O)(O)CN(CCN(CP(=O)(O)O)CP(=O)(O)O)CCN(CP(=O)(O)O)CP(=O)(O)O [DTPMP, diethylenetriamine penta(methylene phosphonic acid)]
[1]
  log K Ca: 7.1
[2]
  log K Fe: 26.5
[6]; pH 2
  log Conditional Stability Constant (@ pH) Fe^+3: −2.10
[6]; pH 3
  log Conditional Stability Constant (@ pH) Fe^+3: 1.90
[6]; pH 4
  log Conditional Stability Constant (@ pH) Fe^+3: 5.90
[6]; pH 5
  log Conditional Stability Constant (@ pH) Fe^+3: 9.90
[6]; pH 6
  log Conditional Stability Constant (@ pH) Fe^+3: 13.87
[6]; pH 7
  log Conditional Stability Constant (@ pH) Fe^+3: 17.68
[6]; pH 8
  log Conditional Stability Constant (@ pH) Fe^+3: 20.85
[3]; pH 2
  log Conditional Stability Constant (@ pH) Cu^+2: −9.10
[3]; pH 3
  log Conditional Stability Constant (@ pH) Cu^+2: −5.10
[3]; pH 4
  log Conditional Stability Constant (@ pH) Cu^+2: −1.10
[3]; pH 5
  log Conditional Stability Constant (@ pH) Cu^+2: 2.90
[3]; pH 6
  log Conditional Stability Constant (@ pH) Cu^+2: 6.87
[3]; pH 7
  log Conditional Stability Constant (@ pH) Cu^+2: 10.68
[3]; pH 8
  log Conditional Stability Constant (@ pH) Cu^+2: 13.85
[4]
  log K Cu: 19.5
[5]; pH 2
  log Conditional Stability Constant (@ pH) Ca^+2: −21.50
[5]; pH 3
  log Conditional Stability Constant (@ pH) Ca^+2: −17.50
[5]; pH 4
  log Conditional Stability Constant (@ pH) Ca^+2: −13.50
[5]; pH 5
  log Conditional Stability Constant (@ pH) Ca^+2: −9.50
[5]; pH 6
  log Conditional Stability Constant (@ pH) Ca^+2: −5.53
[5]; pH 7
  log Conditional Stability Constant (@ pH) Ca^+2: −1.72
[5]; pH 8
  log Conditional Stability Constant (@ pH) Ca^+2: 1.45

## O=C(O)CN(CCN(CC(=O)O)CC(=O)O)CCN(CC(=O)O)CC(=O)O [DTPA]
[1]
  log K Ca: 10.75
[2]
  log K Fe: 16.4
[3]; pH 2
  log Conditional Stability Constant (@ pH) Cu^+2: 3.34
[3]; pH 3
  log Conditional Stability Constant (@ pH) Cu^+2: 6.88
[3]; pH 4
  log Conditional Stability Constant (@ pH) Cu^+2: 9.85
[3]; pH 5
  log Conditional Stability Constant (@ pH) Cu^+2: 12.24
[3]; pH 6
  log Conditional Stability Constant (@ pH) Cu^+2: 14.31
[3]; pH 7
  log Conditional Stability Constant (@ pH) Cu^+2: 16.31
[3]; pH 8
  log Conditional Stability Constant (@ pH) Cu^+2: 18.22
[4]
  log K Cu: 21.4
[5]; pH 2
  log Conditional Stability Constant (@ pH) Ca^+2: −7.26
[5]; pH 3
  log Conditional Stability Constant (@ pH) Ca^+2: −3.72
[5]; pH 4
  log Conditional Stability Constant (@ pH) Ca^+2: −0.75
[5]; pH 5
  log Conditional Stability Constant (@ pH) Ca^+2: 1.64
[5]; pH 6
  log Conditional Stability Constant (@ pH) Ca^+2: 3.71
[5]; pH 7
  log Conditional Stability Constant (@ pH) Ca^+2: 5.71
[5]; pH 8
  log Conditional Stability Constant (@ pH) Ca^+2: 7.62

## CC(C(=O)O)N(CC(=O)O)CC(=O)O (centres unmarked) [MGDA, methylglycinediacetic acid]
[3]; pH 2
  log Conditional Stability Constant (@ pH) Cu^+2: 3.80
[3]; pH 3
  log Conditional Stability Constant (@ pH) Cu^+2: 5.84
[3]; pH 4
  log Conditional Stability Constant (@ pH) Cu^+2: 7.08
[3]; pH 5
  log Conditional Stability Constant (@ pH) Cu^+2: 8.11
[3]; pH 6
  log Conditional Stability Constant (@ pH) Cu^+2: 9.11
[3]; pH 7
  log Conditional Stability Constant (@ pH) Cu^+2: 10.11
[5]; pH 2
  log Conditional Stability Constant (@ pH) Ca^+2: −3.10
[5]; pH 3
  log Conditional Stability Constant (@ pH) Ca^+2: −1.06
[5]; pH 4
  log Conditional Stability Constant (@ pH) Ca^+2: 0.18
[5]; pH 5
  log Conditional Stability Constant (@ pH) Ca^+2: 1.21
[5]; pH 6
  log Conditional Stability Constant (@ pH) Ca^+2: 2.21
[5]; pH 7
  log Conditional Stability Constant (@ pH) Ca^+2: 3.21
[5]; pH 8
  log Conditional Stability Constant (@ pH) Ca^+2: 4.21

## O=C(O)CC[C@H](NCCN[C@H](CCC(=O)O)C(=O)O)C(=O)O [EDDG, ethylenediamine-N,N′-diglutaric acid]
[1]
  log K Ca: 2.70
[4]
  log K Cu: 15.15

## O=C(O)CC(NCCNC(CC(=O)O)C(=O)O)C(=O)O (mixture of isomers) [EDDS, ethylene diamine disuccinic acid]
[1]
  log K Ca: 4.58
[2]
  log K Fe: 22.0
[6]; pH 2
  log Conditional Stability Constant (@ pH) Fe^+3: 6.29
[6]; pH 3
  log Conditional Stability Constant (@ pH) Fe^+3: 9.98
[6]; pH 4
  log Conditional Stability Constant (@ pH) Fe^+3: 12.90
[6]; pH 6
  log Conditional Stability Constant (@ pH) Fe^+3: 17.09
[6]; pH 7
  log Conditional Stability Constant (@ pH) Fe^+3: 18.76
[6]; pH 8
  log Conditional Stability Constant (@ pH) Fe^+3: 19.96
[3]; pH 2
  log Conditional Stability Constant (@ pH) Cu^+2: 2.59
[3]; pH 3
  log Conditional Stability Constant (@ pH) Cu^+2: 6.28
[3]; pH 4
  log Conditional Stability Constant (@ pH) Cu^+2: 9.20
[3]; pH 5
  log Conditional Stability Constant (@ pH) Cu^+2: 11.41
[3]; pH 6
  log Conditional Stability Constant (@ pH) Cu^+2: 13.39
[3]; pH 8
  log Conditional Stability Constant (@ pH) Cu^+2: 16.26
[4]
  log K Cu: 18.35
[5]; pH 2
  log Conditional Stability Constant (@ pH) Ca^+2: −11.11
[5]; pH 3
  log Conditional Stability Constant (@ pH) Ca^+2: −7.42
[5]; pH 4
  log Conditional Stability Constant (@ pH) Ca^+2: −4.50
[5]; pH 5
  log Conditional Stability Constant (@ pH) Ca^+2: −2.29
[5]; pH 6
  log Conditional Stability Constant (@ pH) Ca^+2: −0.13
[5]; pH 7
  log Conditional Stability Constant (@ pH) Ca^+2: 1.36
[5]; pH 8
  log Conditional Stability Constant (@ pH) Ca^+2: 2.56

## O=C(O)CN(CCO)CCN(CC(=O)O)CC(=O)O [HEDTA]
[3]; pH 2
  log Conditional Stability Constant (@ pH) Cu^+2: 3.39
[3]; pH 3
  log Conditional Stability Constant (@ pH) Cu^+2: 6.30
[3]; pH 4
  log Conditional Stability Constant (@ pH) Cu^+2: 8.85
[3]; pH 5
  log Conditional Stability Constant (@ pH) Cu^+2: 10.88
[3]; pH 6
  log Conditional Stability Constant (@ pH) Cu^+2: 12.41
[3]; pH 7
  log Conditional Stability Constant (@ pH) Cu^+2: 13.53
[3]; pH 8
  log Conditional Stability Constant (@ pH) Cu^+2: 14.54
[5]; pH 2
  log Conditional Stability Constant (@ pH) Ca^+2: −5.81
[5]; pH 3
  log Conditional Stability Constant (@ pH) Ca^+2: −2.90
[5]; pH 4
  log Conditional Stability Constant (@ pH) Ca^+2: −0.35
[5]; pH 5
  log Conditional Stability Constant (@ pH) Ca^+2: 1.68
[5]; pH 6
  log Conditional Stability Constant (@ pH) Ca^+2: 3.21
[5]; pH 7
  log Conditional Stability Constant (@ pH) Ca^+2: 4.33
[5]; pH 8
  log Conditional Stability Constant (@ pH) Ca^+2: 5.34

## CC(O)(P(=O)(O)O)P(=O)(O)O [HEDP]
[1]
  log K Ca: 6.0
[2]
  log K Fe: 14.1
[4]
  log K Cu: 11.84

## O=C(O)CN(CCN(CC(=O)O)Cc1ccccc1O)Cc1ccccc1O [HBED]
[1]
  log K Ca: 9.3
[2]
  log K Fe: 39.7
[6]; pH 2
  log Conditional Stability Constant (@ pH) Fe^+3: 13.54
[6]; pH 3
  log Conditional Stability Constant (@ pH) Fe^+3: 17.54
[6]; pH 4
  log Conditional Stability Constant (@ pH) Fe^+3: 21.52
[6]; pH 5
  log Conditional Stability Constant (@ pH) Fe^+3: 25.39
[6]; pH 6
  log Conditional Stability Constant (@ pH) Fe^+3: 28.82
[6]; pH 7
  log Conditional Stability Constant (@ pH) Fe^+3: 31.89
[6]; pH 8
  log Conditional Stability Constant (@ pH) Fe^+3: 34.85
[4]
  log K Cu: 9.29

## O=C(O)CC[C@@H](C(=O)O)N(CC(=O)O)CC(=O)O [GLD, glutamic acid diacetic acid]
[3]; pH 2
  log Conditional Stability Constant (@ pH) Cu^+2: −0.42
[3]; pH 3
  log Conditional Stability Constant (@ pH) Cu^+2: 3.32
[3]; pH 4
  log Conditional Stability Constant (@ pH) Cu^+2: 5.75
[3]; pH 5
  log Conditional Stability Constant (@ pH) Cu^+2: 7.33
[3]; pH 6
  log Conditional Stability Constant (@ pH) Cu^+2: 8.45
[3]; pH 7
  log Conditional Stability Constant (@ pH) Cu^+2: 9.47
[3]; pH 8
  log Conditional Stability Constant (@ pH) Cu^+2: 10.47
[5]; pH 2
  log Conditional Stability Constant (@ pH) Ca^+2: −7.62
[5]; pH 3
  log Conditional Stability Constant (@ pH) Ca^+2: −3.88
[5]; pH 4
  log Conditional Stability Constant (@ pH) Ca^+2: −1.45
[5]; pH 5
  log Conditional Stability Constant (@ pH) Ca^+2: 0.13
[5]; pH 6
  log Conditional Stability Constant (@ pH) Ca^+2: 1.25
[5]; pH 7
  log Conditional Stability Constant (@ pH) Ca^+2: 2.27
[5]; pH 8
  log Conditional Stability Constant (@ pH) Ca^+2: 3.27

## O=C(O)CC(NCC(O)CNC(CC(=O)O)C(=O)O)C(=O)O (centres unmarked) [HPDDS, 2-hydroxypropylendiamin-N—N′-disucinnic acid]
[1]
  log K Ca: 2.94
[3]; pH 2
  log Conditional Stability Constant (@ pH) Cu^+2: −4.27
[3]; pH 3
  log Conditional Stability Constant (@ pH) Cu^+2: −0.37
[3]; pH 4
  log Conditional Stability Constant (@ pH) Cu^+2: 2.99
[3]; pH 5
  log Conditional Stability Constant (@ pH) Cu^+2: 5.40
[3]; pH 6
  log Conditional Stability Constant (@ pH) Cu^+2: 7.45
[3]; pH 7
  log Conditional Stability Constant (@ pH) Cu^+2: 9.43
[3]; pH 8
  log Conditional Stability Constant (@ pH) Cu^+2: 11.21
[4]
  log K Cu: 12.84
[5]; pH 2
  log Conditional Stability Constant (@ pH) Ca^+2: −14.17
[5]; pH 3
  log Conditional Stability Constant (@ pH) Ca^+2: −10.27
[5]; pH 4
  log Conditional Stability Constant (@ pH) Ca^+2: −6.91
[5]; pH 5
  log Conditional Stability Constant (@ pH) Ca^+2: −4.50
[5]; pH 6
  log Conditional Stability Constant (@ pH) Ca^+2: −2.45
[5]; pH 7
  log Conditional Stability Constant (@ pH) Ca^+2: 0.47
[5]; pH 8
  log Conditional Stability Constant (@ pH) Ca^+2: 1.31

Source: US20130333715A1, “SHAMPOO COMPOSITIONS AND METHODS OF MAKING SAME” (The Procter & Gamble Company, priority 2012, published 2013)
